Laboratory results published in the supplement of paper PMC13380429.

Assays:
Conditions in all cases: 72 h
[1] = test system: Calu-3; test: relative viability EC50 (midpoint between 100% and the lowest measured viability); higher = less toxic
[2] = test system: U2OS; test: as above
[3] = test system: Vero E6; test: as above
[4] = test system: HepG2; test: cell viability relative to DMSO; higher = less toxic
[5] = test system: Caco-2; test: as above
[6] = test system: Calu-3; test: as above
[7] = test system: U2OS; test: as above
[8] = test system: Vero E6; test: as above
[9] = test system: HepG2; test: drug sensitivity score (DSS) for viability; higher = more toxic; extreme values may be limits of the assay
[10] = test system: Caco-2; test: as above
[11] = test system: Calu-3; test: as above
[12] = test system: U2OS; test: as above
[13] = test system: Vero E6; test: as above
[14] = test system: HepG2; test: relative viability EC50 (midpoint between 100% and the lowest measured viability); higher = less toxic

| SMILES | relative viability EC50 [1] | relative viability EC50 [2] | relative viability EC50 [3] | cell viability ([4]; 1 nM) | cell viability ([4]; 10 nM) | cell viability ([4]; 100 nM) | cell viability ([4]; 1000 nM) | cell viability ([4]; 10000 nM) | cell viability ([5]; 1 nM) | cell viability ([5]; 10 nM) | cell viability ([5]; 100 nM) | cell viability ([5]; 1000 nM) | cell viability ([5]; 10000 nM) | cell viability ([6]; 1 nM) | cell viability ([6]; 10 nM) | cell viability ([6]; 100 nM) | cell viability ([6]; 1000 nM) | cell viability ([6]; 10000 nM) | cell viability ([7]; 1 nM) | cell viability ([7]; 10 nM) | cell viability ([7]; 100 nM) | cell viability ([7]; 1000 nM) | cell viability ([7]; 10000 nM) | cell viability ([8]; 1 nM) | cell viability ([8]; 10 nM) | cell viability ([8]; 100 nM) | cell viability ([8]; 1000 nM) | cell viability ([8]; 10000 nM) | drug sensitivity score [9] | drug sensitivity score [10] | drug sensitivity score [11] | drug sensitivity score [12] | drug sensitivity score [13] | relative viability EC50 [14] |
| --- | --- | --- | --- | --- | --- | --- | --- | --- | --- | --- | --- | --- | --- | --- | --- | --- | --- | --- | --- | --- | --- | --- | --- | --- | --- | --- | --- | --- | --- | --- | --- | --- | --- | --- |
| c1ccc(-c2cnn3cc(-c4ccc(OCCN5CCOCC5)cc4)cnc23)cc1 [DMH4] | > 10 µM | > 10 µM | > 10 µM | 96.4% | 95.1% | 98.2% | 91.5% | 50.7% | 105% | 97.9% | 93.6% | 96.1% | 74.3% | 101% | 107% | 89.6% | 114% | 85.9% | 102% | 101% | 99.6% | 98.6% | 80.8% | 97.1% | 101% | 101% | 91.4% | 104% | 4 | 1.6 | 0 | 0.7 | 0 | – |
| COc1ccc2c(Oc3ccc(NC(=O)c4c(C)n(CC(C)(C)O)n(-c5ccccc5)c4=O)nc3)ccnc2c1 [AMG458] | > 10 µM | > 10 µM | > 10 µM | 99.3% | 92.2% | 98.2% | 88.3% | 65.8% | 99.6% | 106% | 90.8% | 95.9% | 72% | 99.1% | 106% | 100% | 92.7% | 86.6% | 102% | 116% | 99.3% | 103% | 93.3% | 104% | 103% | 104% | 98.6% | 102% | 3 | 1.8 | 0.5 | 0 | 0 | – |
| COC(=O)Nc1nc2cc(C(=O)c3ccc(F)cc3)ccc2[nH]1 [flubendazole] | – | – | 1.38 µM | 96.8% | 95.7% | 92.4% | 63.4% | 40.4% | 93% | 96.7% | 101% | 87.3% | 54.6% | 94.2% | 87.9% | 98.8% | 97.6% | 72.3% | 98.2% | 107% | 102% | 95.4% | 54.6% | 94.9% | 102% | 92.4% | 79% | 41.8% | 7.9 | 4.3 | 1.5 | 3.1 | 5.5 | 0.619 µM |
| C=CC(=O)Nc1cc2c(Nc3ccc(F)c(Cl)c3)ncnc2cc1OCCCN1CCOCC1 [canertinib] | 0.132 µM | > 10 µM | – | 105% | 97.6% | 105% | 95.5% | 90.5% | 91.7% | 90.3% | 81.6% | 81.5% | 69.5% | 100% | 89.8% | 70.2% | 41.2% | 30.1% | 97.1% | 98.5% | 93.1% | 96.1% | 89.9% | 98.5% | 93.1% | 86.3% | 65.6% | 51% | 0 | 5.4 | 14.8 | 0 | 7.8 | > 10 µM |
| COc1ccc(-c2cc(=O)c3c(O)cc(O[C@@H]4O[C@H](CO[C@@H]5O[C@@H](C)[C@H](O)[C@@H](O)[C@H]5O)[C@@H](O)[C@H](O)[C@H]4O)cc3o2)cc1O [diosmin] | – | – | – | – | – | – | – | – | – | – | – | – | – | – | – | – | – | – | – | – | – | – | – | – | – | – | – | – | 0 | – | 0 | 0 | 0 | – |
| O=C(c1cccc(Cl)c1F)N1CCN(Cc2cccc(Nc3nccs3)n2)CC1 [MK-8745] | > 10 µM | – | > 10 µM | 105% | 115% | 101% | 54.7% | 37.7% | 92.1% | 94.2% | 91.7% | 86.5% | 70.7% | 92.6% | 88.5% | 92% | 85.1% | 92.2% | 102% | 99.5% | 98.5% | 98.4% | 69.1% | 99.2% | 101% | 99% | 90.2% | 78% | 8.7 | 2.8 | 0 | 1.6 | 1.6 | 0.676 µM |
| CC(C)NC(=O)N1CC[C@H](NC2=Nc3cc(F)ccc3N(CC(F)F)c3ccc(Cl)cc32)C1 [NVS-PAK1-1] | 1.82 µM | – | 2.24 µM | 108% | 104% | 93.6% | 97.3% | 93.4% | 84.8% | 120% | 90.9% | 110% | 56.4% | 103% | 112% | 91.9% | 90% | 44.8% | 104% | 104% | 98.7% | 93.4% | 51.3% | 99.8% | 101% | 108% | 92.3% | 31.4% | 0 | 1.7 | 4.6 | 3.7 | 5 | > 10 µM |
| Nc1nc(Nc2ccc(S(N)(=O)=O)cc2)nn1C(=O)c1c(F)cccc1F | 4.32 µM | 3.41 µM | – | 103% | 103% | 92.8% | 76.7% | 8.9% | 107% | 100% | 101% | 106% | 63.7% | 102% | 97.1% | 98.1% | 127% | 33.2% | 102% | 102% | 100% | 104% | 2.1% | 107% | 104% | 106% | 99.1% | 68.7% | 8.6 | 1.4 | 2.6 | 5.1 | 1.5 | 1.53 µM |
| COc1ccc(-n2nc(CCC(=O)N(C)O)cc2-c2ccc(Cl)cc2)cc1 [tepoxalin] | > 10 µM | – | – | 107% | 106% | 96.4% | 96.6% | 73.8% | 103% | 112% | 116% | 99.4% | 59.8% | 97.5% | 110% | 102% | 106% | 110% | 97.1% | 95.7% | 96.7% | 94.6% | 61.8% | 98.2% | 99.9% | 99.5% | 99.9% | 64.7% | 1.6 | 2.1 | 0 | 2.8 | 1.7 | – |
| CC(C)(C)c1cc(C(=O)/C=C/c2ccc(C(=O)O)cc2)cc(C(C)(C)C)c1 [CH55] | > 10 µM | – | – | 109% | 113% | 120% | 105% | 91.9% | 102% | 87.3% | 90.8% | 93.3% | 67% | 92% | 92.1% | 76.9% | 87.5% | 77.8% | 98.2% | 97.3% | 91% | 97.7% | 64.4% | – | – | – | – | – | 0 | 2.4 | 4.3 | 2 | – | > 10 µM |
| Oc1ccc([C@H]2COc3cc(O)ccc3C2)cc1 [equol] | > 10 µM | > 10 µM | > 10 µM | 94.2% | 105% | 110% | 94.8% | 97.3% | – | – | – | – | – | 97.2% | 111% | 99.2% | 92.6% | 91.2% | 98.5% | 103% | 97.9% | 102% | 99.6% | 98.6% | 102% | 96.2% | 95.5% | 96.6% | 0 | – | 0 | 0 | 0 | > 10 µM |
| CN(C)CCCC1(c2ccc(F)cc2)OCc2cc(C#N)ccc21 (stereo not drawn) [citalopram] | – | – | – | – | – | – | – | – | – | – | – | – | – | – | – | – | – | – | – | – | – | – | – | – | – | – | – | – | 0 | – | 0 | 0 | 0 | – |
| CCN1CCN(c2cc3c(cc2F)c(=O)c(C(=O)O)cn3C2CC2)CC1 [enrofloxacin] | – | – | – | – | – | – | – | – | – | – | – | – | – | – | – | – | – | – | – | – | – | – | – | – | – | – | – | – | 0 | – | 0 | 0 | 0 | – |
| O=C(Nc1cccc(Cl)c1)Nc1ncc(CCNc2ncnc3ccsc23)s1 [SNS-314] | – | – | > 10 µM | 92.8% | 96.8% | 76.3% | 67.5% | 41.6% | 92.8% | 99% | 90.4% | 85.8% | 69% | – | – | – | – | – | 98.5% | 102% | 88.2% | 90.4% | 74.8% | 103% | 103% | 86.3% | 89.9% | 93.2% | 9.2 | 2.9 | – | 1.9 | 1.8 | 0.315 µM |
